Results taken from patent US20210301349A1, “COMPOSITIONS AND METHODS FOR TREATING A TUMOR SUPPRESSOR DEFICIENT CANCER” (BETH ISRAEL DEACONESS MEDICAL CENTER, INC., priority 2016, published 2021).
Values joined by “and” are separate entries in the source; they are usually repeats but may differ in a detail not shown here. Identical values can stand only once. “Also recorded” adds a separate entry of the source.

What was measured:
Type in all cases: in vivo, mouse
[1] = system: Pten^pc−/−; Zbtb7a^pc−/− prostate tumors; test: Tumor growth by MRI in Pten^pc−/−; Zbtb7a^pc−/− mice under drug or antibody treatment; conditions: for tumor volume: Pten-Zbtb7a, individual mice
Description: (§1) Mice were allocated at random to experimental groups and studies were performed in an unblended manner. For treatment with the CXCR2 antagonist, SB225002 (Cayman Chemical #13336) was dissolved in DMSO (10 mg/ml) and diluted in vehicle (0.9% NaCl, 0.3% Tween 80) for in vivo administration. Mice (4 months of age) were treated daily for 10 days by intraperitoneal injection (5 mg/kg) and prostate tumor tissue (anterior lobes) was subjected to Flow Cytometry and histological analysis. For MRI analysis, mice (4 months of age) were treated daily for 21 days (Pten^pc−/−; Zbtb7a^pc−/−), for 14 days (Pten^pc−/−; Trp53^pc−/−) or for 14 days (Pten^pc−/−; Pml^pc−/−) by intraperitoneal injection (5 mg/kg). For depletion of Gr-1+/CD11b+ cells, Ly6G-depletion antibody (1A8, BioXcell) and control Rat IgG2a antibody (BioXcell) were diluted in phosphate-buffered saline (PBS) for in vivo administration. Mice (4 months of age) were treated every other day for 10 days by intraperitoneal injection (200-300 μg/mouse). InVivoMAb anti-mouse Ly6G/Ly6C (Gr-1) antibody, clone RB6-8C5 (BE0075, BioXcell), and control Rat IgG2b antibody (BE0090, BioXcell) were diluted in PBS and Pten^pc−/−; Trp53^pc−/− mice were treated every other day for 14 days by intraperitoneal injection (200 μg/mouse). For neutralization of CXCL5, anti-Mouse CXCL5 antibody (Leinco Technologies) and control Rat IgG2a antibody (BioXcell) were diluted in PBS and injected every other day for 21 days by intraperitoneal injection (20 μg/mouse). Tumor volume quantification was performed by using VivoQuant and Image J software. All mouse prostate MRI imaging analysis was performed at Small Animal Imaging Core at BIDMC and acquired on an ASPECT Model M2 1T tabletop scanner.

[2] = system: Pten^pc−/−; Trp53^pc−/− prostate tumors; test: Tumor growth by MRI in Pten^pc−/−; Trp53^pc−/− mice under drug or antibody treatment; conditions: for tumor volume: individual mice
Description: as §1

[3] = system: Pten^pc−/−; Zbtb7a^pc−/− tumors (anterior prostate lobes); test: Histological analysis of treated Pten^pc−/−; Zbtb7a^pc−/− tumors; conditions: Zbtb7a^pc−/− mice, 10 days of i.p. treatment, versus vehicle or control IgG
Description: (§2) Mice were allocated at random to experimental groups and studies were performed in an unblended manner. For treatment with the CXCR2 antagonist, SB225002 (Cayman Chemical #13336) was dissolved in DMSO (10 mg/ml) and diluted in vehicle (0.9% NaCl, 0.3% Tween 80) for in vivo administration. Mice (4 months of age) were treated daily for 10 days by intraperitoneal injection (5 mg/kg) and prostate tumor tissue (anterior lobes) was subjected to Flow Cytometry and histological analysis. For MRI analysis, mice (4 months of age) were treated daily for 21 days (Pten^pc−/−; Zbtb7a^pc−/−), for 14 days (Pten^pc−/−; Trp53^pc−/−) or for 14 days (Pten^pc−/−; Pml^pc−/−) by intraperitoneal injection (5 mg/kg). […] Tumor volume quantification was performed by using VivoQuant and Image J software. […]
(§3) For western blotting, cell lysates were prepared by homogenizing tumor tissue with NP40 Buffer (Boston Bioproducts) supplemented with protease (Roche) and HALT phosphatase inhibitor cocktails (Thermo Scientific) and subsequently subjected to SDS-Gel separation (Invitrogen) and western blotting. […] Western blots were quantified using Image J software. […] Embedding and hematoxylin and eosin staining of sections were performed by the Histology Core at BIDMC and analyzed by a pathologist. […]

[4] = system: Pten^pc−/−; Trp53^pc−/− tumors (anterior prostate lobes); test: Histological analysis of treated Pten^pc−/−; Trp53^pc−/− tumors; conditions: Trp53^pc−/− mice, 10 days of i.p. treatment, versus vehicle
Description: as §2, §3

[5] = system: NFκB signaling; test: Western blot and expression analysis of Pten^pc−/−; Zbtb7a^pc−/− tumors treated with CXCR2 antagonist; conditions: versus vehicle
Description: as §2, §3

O=C(Nc1ccc([N+](=O)[O-])cc1O)Nc1ccccc1Br [SB225002]
tumor volume ([1]; CXCR2i (SB225002 5 mg/kg i.p. daily), row 0 = day 0 baseline, MRI): 54.248 mm3 and 79.3701 mm3 and 59.2774 mm3 | tumor volume ([1]; CXCR2i, row 1 (weekly MRI)): 44.3115 mm3 and 67.9688 mm3 and 65.0879 mm3 | tumor volume ([1]; CXCR2i, row 2 (weekly MRI)): 41.1865 mm3 and 68.9697 mm3 and 58.6914 mm3 | tumor volume ([1]; CXCR2i, row 3 (weekly MRI, 3 weeks on treatment)): 42.1142 mm3 and 71.3379 mm3 and 66.0889 mm3 | tumor growth ([1]; Pten^pc−/−, Zbtb7a^pc−/− mice, versus vehicle or control IgG): significantly suppressed the tumor growth; also recorded: significant inhibition of tumor growth | tumor volume ([2]; Pten-Trp53, CXCR2i (SB225002 5 mg/kg i.p. daily), row 0 = day 0 baseline, MRI): 67.016 mm3 and 32.276 mm3 and 66.382 mm3 | tumor volume ([2]; Pten-Trp53, CXCR2i, row 1 (weekly MRI)): 53.809 mm3 and 31.739 mm3 and 68.018 mm3 | tumor volume ([2]; Pten-Trp53, CXCR2i, row 2 (weekly MRI, 2 weeks on treatment)): 51.807 mm3 and 39.795 mm3 and 63.477 mm3 | tumor growth ([2]; Pten^pc−/−, Trp53^pc−/− mice, versus vehicle or control IgG): significantly suppressed the tumor growth; also recorded: significant inhibition of tumor growth | tumor burden by histological analysis [3]: reduced tumor burden | tumor burden by histological analysis ([3]; listed as CXCR2 inhibitor): significantly diminished tumor involvement | tumor burden by histological analysis [4]: reduced tumor burden | tumor burden by histological analysis ([4]; listed as CXCR2 inhibitor): significantly diminished tumor involvement | expression of CXCL5 ([5]; Pten^pc−/−, Zbtb7a^pc−/− prostate tumors): elevated expression of CXCL5 | IκBα protein level (normalized with β-actin) ([5]; western blot of Pten^pc−/−, Zbtb7a^pc−/− tumors): increased IκBα protein levels
